Reference: ChEMBL document CHEMBL2151022, “Combatting Drug-Resistant Bacteria with Gyrase and Topoisomerase IV Inhibitors: Patent Highlight” (ACS Med Chem Lett, 2012)

Molecular target: DNA gyrase subunit B (Staphylococcus aureus, UniProt P0A0K8)
Test: Inhibition of Staphylococcus aureus DNA gyrase Gyr B subunit by ATPase assay

Sequence of DNA gyrase subunit B (P0A0K8 whole entry): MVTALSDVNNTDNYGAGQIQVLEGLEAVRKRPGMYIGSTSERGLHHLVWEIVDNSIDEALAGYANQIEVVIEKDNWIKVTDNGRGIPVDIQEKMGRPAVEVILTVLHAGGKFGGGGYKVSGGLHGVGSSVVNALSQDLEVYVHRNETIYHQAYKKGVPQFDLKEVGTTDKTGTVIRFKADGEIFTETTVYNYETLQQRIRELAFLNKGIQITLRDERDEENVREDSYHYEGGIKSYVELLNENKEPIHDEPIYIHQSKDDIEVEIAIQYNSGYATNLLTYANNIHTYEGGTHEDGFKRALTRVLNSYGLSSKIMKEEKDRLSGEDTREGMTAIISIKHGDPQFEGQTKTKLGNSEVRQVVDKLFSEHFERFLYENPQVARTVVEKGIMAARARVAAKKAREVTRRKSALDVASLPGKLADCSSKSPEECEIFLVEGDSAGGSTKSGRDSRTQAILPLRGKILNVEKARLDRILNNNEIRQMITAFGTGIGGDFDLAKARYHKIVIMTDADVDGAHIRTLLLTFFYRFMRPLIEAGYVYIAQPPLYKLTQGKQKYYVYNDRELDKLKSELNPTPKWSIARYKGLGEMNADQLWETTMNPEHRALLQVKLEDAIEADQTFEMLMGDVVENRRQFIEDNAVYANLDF

Q: For CCNC(=O)Nc1nc2cc(-c3cnc(C(C)(C)OP(=O)(O)O)nc3)c(F)c([C@H]3CCCO3)c2[nH]1, which Ki is on record?
A: < 9 nM
